From PubChem BioAssay (NCI) come the findings set out here.

The structures appear in SMILES notation.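 Tested at 5 concentrations; 48 h exposure; 96-well plates; endpoints linearly interpolated, else capped at highest concentration. Here, GI50 denotes the concentration required for 50% inhibition of growth. Definition used: TGI = concentration required for complete inhibition of growth.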

Among the test systems are HOP-92 NSCLC; NCI-H23 lung; OVCAR-4 ovarian; OVCAR-5 ovarian; RXF 393 renal; SK-MEL-2 melanoma; SK-MEL-5 melanoma; HL-60(TB) leukemia; T-47D breast.
What all share (experiment): NCI-60 cell line screen, 48 h

Take `NC(CCSC(F)F)C(=O)O` (stereo unspecified): the TGI in the assay on HOP-92 NSCLC, in the assay with NCI-H23 lung, with OVCAR-4 ovarian, in the assay on OVCAR-5 ovarian, in the assay with RXF 393 renal and with SK-MEL-2 melanoma was over 100 µM throughout. Besides, the TGI in the assay with SK-MEL-5 melanoma is over 100 µM.

As for `COc1cc(/C=C2/C(=O)NC(Cc3cc(OC)c(OC)c(C)c3OC)C(=O)N2Cc2ccccc2)c(OC)c(C)c1OC` (stereo unspecified), the TGI with HL-60(TB) leukemia is 53.3 µM; in the assay on HOP-92 NSCLC, 71.9 µM; with NCI-H23 lung it was over 100 µM; with OVCAR-4 ovarian, over 100 µM; in the assay with OVCAR-5 ovarian it was over 100 µM; with RXF 393 renal it was over 100 µM. In addition, the TGI was 66.8 µM with SK-MEL-2 melanoma and over 100 µM in the assay on SK-MEL-5 melanoma.

With `COc1ccc2c(c1)CC1c3c(cc4c(c3-2)OCO4)CCN1C` (stereo unspecified), the TGI is 57 µM with HOP-92 NSCLC; 73.9 µM in the assay with NCI-H23 lung; 52.2 µM in the assay on OVCAR-4 ovarian; over 100 µM in the assay with OVCAR-5 ovarian; 72.3 µM in the assay on SK-MEL-2 melanoma; 30.6 µM in the assay on SK-MEL-5 melanoma.

Turning to `C=CCN=C1NC(=O)C(CC(=O)Nc2ccc(C)cc2)S1` (stereo unspecified), the TGI with HL-60(TB) leukemia, in the assay on NCI-H23 lung, in the assay with OVCAR-4 ovarian, in the assay on OVCAR-5 ovarian, with RXF 393 renal and with SK-MEL-2 melanoma was over 100 µM each time. In the assay with SK-MEL-5 melanoma, this molecule displayed a TGI of over 100 µM.

Consider `CC12CC3CC(C1)CC(N=[N+]=[N-])(C3)C2`, for which the TGI in the assay with HOP-92 NSCLC, with NCI-H23 lung, with OVCAR-4 ovarian, in the assay with OVCAR-5 ovarian, with SK-MEL-2 melanoma and in the assay with SK-MEL-5 melanoma was over 100 µM in each case.

On to `COc1cc(C(=O)CC2(O)C(=O)Nc3c(Cl)cc(Cl)cc32)ccc1O` (stereo unspecified), for which the TGI with HL-60(TB) leukemia, in the assay on HOP-92 NSCLC, in the assay on NCI-H23 lung, in the assay on OVCAR-4 ovarian, in the assay on OVCAR-5 ovarian and in the assay on RXF 393 renal was over 100 µM each time. Further, the TGI in the assay with SK-MEL-2 melanoma and in the assay with SK-MEL-5 melanoma was over 100 µM each time.

Consider `Cc1ccc(C2=C(c3ccccc3)C(Br)(c3ccccc3)C(c3ccccc3)=C2c2ccc(C)cc2)cc1`, for which the TGI with HL-60(TB) leukemia, in the assay with HOP-92 NSCLC, in the assay with NCI-H23 lung, in the assay on OVCAR-4 ovarian, in the assay on OVCAR-5 ovarian and in the assay on RXF 393 renal was over 100 µM in each case. In addition, the TGI in the assay with SK-MEL-2 melanoma and with SK-MEL-5 melanoma was over 100 µM in each case.

Consider `C=C(C)[C@H](O)C(O)CC(C)[C@@H]1CCC23CC12CCC1[C@@]2(C)CCC(OC(C)=O)C(C)(C)C2CC(OC2OC(COC(C)=O)C(O)C(O)C2O)[C@]13C` (stereo partly specified), for which the TGI in the assay on HL-60(TB) leukemia worked out at 5.08 µM; with HOP-92 NSCLC, 11 µM; with NCI-H23 lung, 14 µM; with OVCAR-4 ovarian it was 14 µM; in the assay with OVCAR-5 ovarian it was 13.9 µM; in the assay with RXF 393 renal, 8.49 µM. In the assay on SK-MEL-2 melanoma, this molecule yielded a TGI of 16.2 µM.

Consider `O=C1CCCC1NC(=O)C(F)(F)F` (stereo unspecified), for which the TGI in the assay with HL-60(TB) leukemia, in the assay on HOP-92 NSCLC, in the assay with NCI-H23 lung, in the assay on OVCAR-4 ovarian, in the assay on OVCAR-5 ovarian and in the assay on RXF 393 renal was over 100 µM each time. Besides, the TGI in the assay with SK-MEL-2 melanoma and in the assay on SK-MEL-5 melanoma was over 100 µM each time.

`COC(=O)C(CC(=O)Nc1ccc(Cl)c(Cl)c1)C(=O)C(=O)NC1C2CC3CC(C2)CC1C3` (stereo unspecified): the TGI with HL-60(TB) leukemia, in the assay on HOP-92 NSCLC, in the assay on NCI-H23 lung, in the assay with OVCAR-4 ovarian, with OVCAR-5 ovarian and with RXF 393 renal was over 100 µM each time. Also, the TGI in the assay with SK-MEL-2 melanoma and in the assay with SK-MEL-5 melanoma was over 100 µM throughout.

Consider `O=C1C[C@H]2CC3(CC[C@H]2CN1)OCCO3`, for which the TGI in the assay on HL-60(TB) leukemia, in the assay with HOP-92 NSCLC, in the assay on NCI-H23 lung, with OVCAR-4 ovarian, in the assay on RXF 393 renal and with SK-MEL-2 melanoma was over 100 µM each time. Also, in the assay on SK-MEL-5 melanoma, the TGI was over 100 µM.

Take `Cc1ccc(N2C(=O)/C(=C/c3ccc(N(CCC#N)CCC#N)cc3C)N=C2c2cc([N+](=O)[O-])ccc2Cl)cc1`: the TGI with HL-60(TB) leukemia, with HOP-92 NSCLC, with NCI-H23 lung, in the assay with OVCAR-4 ovarian, with OVCAR-5 ovarian and in the assay with SK-MEL-2 melanoma was over 100 µM in each case. In addition, the TGI with SK-MEL-5 melanoma was over 100 µM.

Turning to `CCOC(=O)NC(=O)c1cn(CCN2CCN(C(=O)NCCCCCCNC(=O)N3CCN(CCn4cc(C(=O)NC(=O)OCC)c(=O)n(CCN(CC)CC)c4=O)CC3)CC2)c(=O)n(CCC(CC)CC)c1=O`, the TGI with HL-60(TB) leukemia, in the assay on HOP-92 NSCLC, with NCI-H23 lung, in the assay on OVCAR-4 ovarian, in the assay on OVCAR-5 ovarian and with RXF 393 renal was over 100 µM in each case. In addition, the TGI in the assay with SK-MEL-2 melanoma and in the assay with SK-MEL-5 melanoma was over 100 µM in each case.

As for `COc1cc([N+](=O)[O-])c(OC)cc1-c1nc2sc(Cl)cn2c1/C=N/NC(=N)N/N=C/c1c(-c2cc(OC)c([N+](=O)[O-])cc2OC)nc2sc(Cl)cn12`, the GI50 in the assay with OVCAR-4 ovarian was 2420 nM; in the assay with OVCAR-5 ovarian, 1710 nM; in the assay on SK-MEL-5 melanoma, 1.66 µM; in the assay with T-47D breast, 1980 nM. Also, the TGI came out at 5.71 µM in the assay on OVCAR-4 ovarian, 3.16 µM in the assay on OVCAR-5 ovarian, 3.12 µM with SK-MEL-5 melanoma and 5.07 µM with T-47D breast.

For `C[CH2][Sn]([Cl])([Cl])[CH2]C`, the GI50 in the assay with HL-60(TB) leukemia is over 75.9 µM; in the assay with HOP-92 NSCLC, 19.7 µM; with NCI-H23 lung, 19.9 µM; in the assay with OVCAR-4 ovarian, over 100000 nM; with OVCAR-5 ovarian it was over 100000 nM; in the assay with RXF 393 renal it was 17.5 µM. In addition, the GI50 in the assay on SK-MEL-2 melanoma is 17 µM; in the assay on SK-MEL-5 melanoma, 45.5 µM. Moreover, the TGI with HL-60(TB) leukemia was over 100 µM; in the assay on HOP-92 NSCLC it was 36.2 µM; in the assay with NCI-H23 lung, 41.4 µM; in the assay with OVCAR-4 ovarian it was over 100 µM; in the assay on OVCAR-5 ovarian, over 100 µM; with RXF 393 renal, 32.7 µM. Also, the TGI in the assay on SK-MEL-2 melanoma was 37.4 µM; with SK-MEL-5 melanoma, over 100 µM.

`COc1cc([C@@H]2OC(=O)C3C2C(=O)O[C@H]3c2cc(OC)c(OC)c(OC)c2)cc(OC)c1OC` (stereo partly specified): the TGI with HL-60(TB) leukemia, with HOP-92 NSCLC, with NCI-H23 lung, in the assay with OVCAR-4 ovarian, in the assay with RXF 393 renal and with SK-MEL-2 melanoma was over 100 µM in each case. In the assay with SK-MEL-5 melanoma, this molecule displayed a TGI of over 100 µM.
